Laboratory results as given in EP1724268A1, “COMPOUND HAVING TGF-BETA INHIBITORY ACTIVITY AND PHARMACEUTICAL COMPOSITION CONTAINING SAME” (KIRIN BEER KABUSHIKI KAISHA, priority 2004, dated 2005).

Tested on: TGFβ signal
Experiment: TGFβ signal inhibitory activity, (SBE)4-Luc reporter in A549 cells (Test Examples 1A and 1B)
Format: cell-based, human
Conditions: Homo sapiens, A549, TGFβ-1 2 ng/ml, 4 hr, Table 1A, read-out: TGFβ inhibition rate, %; for inhibition at 3 µM: test compound 3 µM; for inhibition at 10 µM: test compound 10 µM
Outline: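 Stable A549 line carrying (SBE)4-Luc Smad3-binding reporter treated with compound plus TGFβ-1 (2 ng/ml) for 4 hr; luciferase read by chemiluminescence. Percent inhibition relative to TGFβ-only and untreated cells, tested at 3 µM and 10 µM, some also at 1 µM.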

Row | SMILES | inhibition at 3 µM [%] | inhibition at 10 µM [%]
1 | COc1cc2nccc(Oc3ccc(F)nc3-c3ccccn3)c2cc1OC [Compound 115, 3-(6,7-Dimethoxy-quinolin-4-yloxy)-6-fluoro-[2,2']bipyridine] | 100 | 100
2 | COC(=O)c1cc2nccc(Oc3cc4cccnc4nc3-c3ccccc3)c2cc1OC [Compound 116, Methyl 6-methoxy-4-(2-phenyl-[1,8]naphthyridin-3-yloxy)-quinoline-7-carboxylate] | 99 | 100
3 | CCc1ccc(Oc2ccnc3ccccc23)c(-c2ncccn2)n1 [Compound 117, 4-(6-Ethyl-2-pyrimidin-2-yl-pyridin-3-yloxy)-quinoline] | 96 | 100
4 | COc1cc2nccc(Oc3cc4cccnc4nc3-c3ccccc3)c2cc1OC(C)C [Compound 118, 3-(6-Isopropoxy-7-methoxy-quinolin-4-yloxy)-2-phenyl-[1,8]naphthyridine] | 100 | 100
5 | COc1cc2c(Oc3cc(C)c(C)nc3-c3ccccn3)ccnc2cc1C [Compound 119, 3-(6-Methoxy-7-methyl-quinolin-4-yloxy)-5,6-dimethyl-[2,2']bipyridine] | 100 | 100
6 | COc1cc2nccc(Oc3cc(C)c(C)nc3-c3ccccn3)c2cc1OC(C)C [Compound 120, 3-(6-Isopropoxy-7-methoxy-quinolin-4-yloxy)-5,6-dimethyl-[2,2']bipyridine] | 94 | 100
7 | COc1ccc2nccc(Oc3cc(C)c(C)nc3-c3ccccn3)c2n1 [Compound 121, 8-(5,6-Dimethyl-[2,2']bipyridinyl-3-yloxy)-2-methoxy-[1,5]naphthyridine] | 98 | 100
8 | COc1cc2nccc(Oc3cc4cccnc4nc3-c3ccccc3)c2cc1OCc1ccccc1 [Compound 123, 3-(6-Benzyloxy-7-methoxy-quinolin-4-yloxy)-2-phenyl-[1,8]naphthyridine] | 99 | 100
9 | COc1cc2nccc(Oc3cc4cccnc4nc3-c3ccccc3)c2cc1O [Compound 124, 7-Methoxy-4-(2-phenyl-[1,8]naphthyridin-3-yloxy)-quinolin-6-ol] | 99 | 100
10 | COc1cc2nccc(Oc3cc4cccnc4nc3-c3ccccc3)c2cc1OCCO [Compound 125, 2-[7-Methoxy-4-(2-phenyl-[1,8]naphthyridin-3-yloxy)-quinolin-6-yloxy]-ethanol] | 99 | 100
11 | Cc1cc(Oc2ccnc3cc(C(N)=O)ccc23)c(-c2ccccn2)nc1C [Compound 126, 4-(5,6-Dimethyl-[2,2']bipyridinyl-3-yloxy)-quinoline-7-carboxylic acid amide] | 93 | 100
12 | COc1ccc2nccc(Oc3cc4cccnc4nc3-c3ccccc3)c2n1 [Compound 128, 2-Methoxy-8-(2-phenyl-[1,8]naphthyridin-3-yloxy)-[1,5]naphthyridine] | 93 | 100
13 | Cc1cc(Oc2ccnc3ccc(Cl)c(Cl)c23)c(-c2ccccn2)nc1C [Compound 130, 3-(5,6-Dichloro-quinolin-4-yloxy)-5,6-dimethyl-[2,2']bipyridine] | 100 | 100
14 | Cc1cc(Oc2ccnc3cc(Cl)c(Cl)cc23)c(-c2ccccn2)nc1C [Compound 131, 3-(6,7-Dichloro-quinolin-4-yloxy)-5,6-dimethyl-[2,2']bipyridine] | 99 | 100
15 | COc1cc2nccc(Oc3cc4cccnc4nc3-c3ccccc3)c2cc1Br [Compound 132, 3-(6-Bromo-7-methoxy-quinolin-4-yloxy)-2-phenyl-[1,8]naphthyridine] | 98 | 100
16 | COc1cc2nccc(Oc3cc(C)c(C)nc3-c3ccccn3)c2cc1Br [Compound 133, 3-(6-Bromo-7-methoxy-quinolin-4-yloxy)-5,6-dimethyl-[2,2']bip yridine] | 99 | 100
17 | Cc1cc(Oc2ccnc3ccc(OCc4ccccc4)cc23)c(-c2ccccn2)nc1C [Compound 136, 3-(6-Benzyloxy-quinolin-4-yloxy)-5,6-dimethyl-[2,2']bipyridine] | 93 | 100
18 | Cc1cc(Oc2ccnc3cc(OCc4ccccc4)ccc23)c(-c2ccccn2)nc1C [Compound 137, 3-(7-Benzyloxy-quinolin-4-yloxy)-5,6-dimethyl-[2,2']bipyridine] | 88 | 100
19 | COc1cc2nccc(Oc3cc(C)c(C)nc3-c3ccccn3)c2cc1OCc1ccccc1 [Compound 138, 3-(6-Benzyloxy-7-methoxy-quinolin-4-yloxy)-5,6-dimethyl-[2,2'] bipyridine] | 98 | 100
20 | Cc1cc(Oc2ccnc3ccc(O)cc23)c(-c2ccccn2)nc1C [Compound 139, 4-(5,6-Dimethyl-[2,2']bipyridinyl-3-yloxy)-quinolin-6-ol] | 100 | 100
21 | Cc1cc(Oc2ccnc3cc(O)ccc23)c(-c2ccccn2)nc1C [Compound 140, 4-(5,6-Dimethyl-[2,2']bipyridinyl-3-yloxy)-quinolin-7-ol] | 99 | 100
22 | COc1cc2nccc(Oc3cc(C)c(C)nc3-c3ccccn3)c2cc1O [Compound 141, 4-(5,6-Dimethyl-[2,2']bipyridinyl-3-yloxy)-7-methoxy-quinolin-6-ol] | 100 | 100
23 | Cc1cc(Oc2ccnc3ccc(OCCO)cc23)c(-c2ccccn2)nc1C [Compound 142, 2-[4-(5,6-Dimethyl-[2,2']bipyridinyl-3-yloxy)-quinolin-6-yloxy]-ethanol] | 98 | 100
24 | Cc1cc(Oc2ccnc3cc(OCCO)ccc23)c(-c2ccccn2)nc1C [Compound 143, 2-[4-(5,6-Dimethyl-[2,2']bipyridinyl-3-ylox)-quinolin-7-yloxy]-ethanol] | 100 | 100
25 | COc1cc2nccc(Oc3cc(C)c(C)nc3-c3ccccn3)c2cc1OCCO [Compound 144, 2-[4-(5,6-Dimethyl-[2,2']bipyridinyl-3-yloxy)-7-methoxy-quinolin-6-yloxy]-ethanol] | 93 | 100
26 | COc1cc2c(Oc3cc(C)c(C)nc3-c3ccccn3)ccnc2cc1C(N)=O [Compound 145, 4-(5,6-Dimethyl-[2,2']bipyridinyl-3-yloxy)-6-methgxy-quinoline-7-carboxylic acid amide] | 78 | 100
27 | Cc1cc(Oc2ccnc3cc(Cl)c(C(N)=O)cc23)c(-c2ccccn2)nc1C [Compound 146, 7-Chloro-4-(5,6-dimethyl-[2,2']bipyridinyl-3-yloxy)-quinoline-6-carboxylic acid amide] | 54 | 95
28 | COc1cc2c(Oc3cc4cccnc4nc3-c3ccccc3)ccnc2cc1C(N)=O [Compound 147, 6-Methoxy-4-(2-phenyl-[1,8]naphthyridin-3-yloxy)-quinoline-7-carboxylic acid amide] | 34 | 77
